Test results published in ChEMBL document CHEMBL3763031, “Design, synthesis and biological evaluation of monobactams as antibacterial agents against gram-negative bacteria” (2016).
Values after ≈ are worked out from the molar mass of the structure shown.

Legend:
[1] = system: Enterobacter cloacae; experiment: Antibacterial activity against beta-lactamase producing Enterobacter cloacae 45301 after 18 hrs by agar dilution assay; type: functional; conditions: Enterobacter cloacae, 45301, 18 h
[2] = system: Klebsiella pneumoniae; experiment: Antibacterial activity against ESBL negative Klebsiella pneumoniae 7 after 18 hrs by agar dilution assay; type: functional; conditions: Klebsiella pneumoniae, 7, 18 h
[3] = system: Pseudomonas aeruginosa; experiment: Antibacterial activity against BL positive Pseudomonas aeruginosa PAO1 after 18 hrs by agar dilution assay; type: functional; conditions: PAO1, 18 h
[4] = system: Escherichia coli; experiment: Antibacterial activity against ESBL negative Escherichia coli 1515 after 18 hrs by agar dilution assay; type: functional; conditions: Escherichia coli, 1515, 18 h
[5] = system: Pseudomonas aeruginosa; experiment: Antibacterial activity against BL positive Pseudomonas aeruginosa 09-14 after 18 hrs by agar dilution assay; type: functional; conditions: 09-14, 18 h
[6] = system: Salmonella typhi; experiment: Antibacterial activity against beta-lactamase producing Salmonella typhi H901 after 18 hrs by agar dilution assay; type: functional, Salmonella enterica subsp. enterica serovar Typhi; conditions: Salmonella enterica, H901, 18 h
[7] = system: Klebsiella pneumoniae; experiment: Antibacterial activity against ESBL positive Klebsiella pneumoniae 700603 after 18 hrs by agar dilution assay; type: functional; conditions: Klebsiella pneumoniae, 700603, 18 h
[8] = system: Klebsiella pneumoniae; experiment: Antibacterial activity against NDM-1 positive Klebsiella pneumoniae BAA-2146 after 18 hrs by agar dilution assay; type: functional; conditions: BAA-2146, 18 h
[9] = system: Klebsiella aerogenes; experiment: Antibacterial activity against beta-lactamase producing Enterobacter aerogenes 45102 after 18 hrs by agar dilution assay; type: functional; conditions: Klebsiella aerogenes, 45102, 18 h
[10] = system: Pseudomonas aeruginosa; experiment: Antibacterial activity against BL positive Pseudomonas aeruginosa 27853 after 18 hrs by agar dilution assay; type: functional; conditions: Pseudomonas aeruginosa, 27853, 18 h
[11] = system: Escherichia coli; experiment: Antibacterial activity against ESBL positive Escherichia coli 09-1 after 18 hrs by agar dilution assay; type: functional; conditions: 09-1, 18 h
[12] = system: Providencia rettgeri; experiment: Antibacterial activity against Providencia rettgeri 31052 after 18 hrs by agar dilution assay; type: functional; conditions: Providencia rettgeri, 31052, 18 h
[13] = system: Escherichia coli; experiment: Antibacterial activity against ESBL negative Escherichia coli 25922 after 18 hrs by agar dilution assay; type: functional; conditions: Escherichia coli, 25922, 18 h
[14] = system: Klebsiella pneumoniae; experiment: Antibacterial activity against ESBL negative Klebsiella pneumoniae 09-8 after 18 hrs by agar dilution assay; type: functional; conditions: 09-8, 18 h
[15] = system: Proteus mirabilis; experiment: Antibacterial activity against beta-lactamase producing Proteus mirabilis 09-1 after 18 hrs by agar dilution assay; type: functional; conditions: 09-1, 18 h
[16] = system: Escherichia coli; experiment: Antibacterial activity against ESBL negative Escherichia coli 09-20 after 18 hrs by agar dilution assay; type: functional; conditions: 09-20, 18 h
[17] = system: Klebsiella pneumoniae; experiment: Antibacterial activity against ESBL positive Klebsiella pneumoniae 09-25 after 18 hrs by agar dilution assay; type: functional; conditions: 09-25, 18 h
[18] = system: Morganella morganii; experiment: Antibacterial activity against beta-lactamase producing Morganella morganii 25830 after 18 hrs by agar dilution assay; type: functional; conditions: Morganella morganii, 25830, 18 h
[19] = system: Citrobacter freundii; experiment: Antibacterial activity against beta-lactamase producing Citrobacter freundii 43864 after 18 hrs by agar dilution assay; type: functional; conditions: Citrobacter freundii, 43864, 18 h
[20] = system: Serratia marcescens; experiment: Antibacterial activity against beta-lactamase producing Serratia marcescens 41002 after 18 hrs by agar dilution assay; type: functional; conditions: Serratia marcescens, 41002, 18 h
[21] = system: Proteus vulgaris; experiment: Antibacterial activity against beta-lactamase producing Proteus vulgaris 29905 after 18 hrs by agar dilution assay; type: functional; conditions: Proteus vulgaris, 29905, 18 h
[22] = system: Escherichia coli; experiment: Antibacterial activity against Escherichia coli BL21 by microbroth dilution assay; type: functional
[23] = system: Escherichia coli; experiment: Antibacterial activity against acrAB and acrEF knock-out Escherichia coli BL21 by microbroth dilution assay; type: functional
[24] = system: Escherichia coli; experiment: Selectivity ratio of MIC for Escherichia coli BL21 to MIC for acrAB and acrEF knock-out Escherichia coli BL21; type: functional

SMILES | MIC [2] [µg/mL] | MIC [3] [µg/mL] | MIC [4] [µg/mL] | MIC [5] [µg/mL] | MIC [6] [µg/mL] | MIC [7] [µg/mL] | MIC [8] [µg/mL] | MIC [9] [µg/mL] | MIC [10] [µg/mL] | MIC [11] [µg/mL] | MIC [12] [µg/mL] | MIC [13] [µg/mL] | MIC [14] [µg/mL] | MIC [15] [µg/mL] | MIC [16] [µg/mL] | MIC [17] [µg/mL] | MIC [18] [µg/mL] | MIC [19] [µg/mL] | MIC [20] [µg/mL] | MIC [21] [µg/mL] | also measured
CC1(C)[C@H](NC(=O)/C(=N\OCc2ccccc2)c2csc(N)n2)C(=O)N1S(=O)(=O)O | > 64 | > 64 | > 64 | > 64 | > 64 | > 64 | > 64 | > 64 | > 64 | > 64 | > 64 | > 64 | > 64 | > 64 | > 64 | > 64 | > 64 | > 64 | > 64 | > 64 | MIC [1]: > 64 µg/mL
CC1(C)[C@H](NC(=O)/C(=N\OCc2ccc(C(=O)O)cc2)c2csc(N)n2)C(=O)N1S(=O)(=O)O | 2 (≈ 4.02 µM) | > 64 | 8 (≈ 16.1 µM) | > 64 | 32 (≈ 64.3 µM) | > 64 | 32 (≈ 64.3 µM) | 8 (≈ 16.1 µM) | > 64 | 4 (≈ 8.04 µM) | ≤ 0.03 | 4 (≈ 8.04 µM) | 2 (≈ 4.02 µM) | 8 (≈ 16.1 µM) | 2 (≈ 4.02 µM) | 8 (≈ 16.1 µM) | > 64 | 2 (≈ 4.02 µM) | 4 (≈ 8.04 µM) | 0.06 (≈ 0.121 µM) | MIC [1]: 2 µg/mL (≈ 4.02 µM)
CCN(CC)CC.C[C@H]1[C@H](NC(=O)/C(=N\OCc2ccc(C(=O)N/N=C/c3ncc[nH]3)cc2)c2csc(N)n2)C(=O)N1S(=O)(=O)O | 8 | 32 | 8 | 32 | 1 | 64 | > 64 | 2 | 32 | 64 | 0.06 | 4 | 8 | 2 | 64 | > 64 | 0.25 | 2 | 4 | 0.125 | MIC [1]: 1 µg/mL; MIC [22]: 1 µg/mL; MIC [23]: ≤ 0.06 µg/mL
C[C@H]1[C@H](NC(=O)/C(=N\OC(C)(C)C(=O)O)c2csc(N)n2)C(=O)N1S(=O)(=O)O [AZTREONAM] | ≤ 0.03 | 0.5 (≈ 1.15 µM) | 0.125 (≈ 0.287 µM) | 4 (≈ 9.19 µM) | ≤ 0.03 | 32 (≈ 73.5 µM) | 256 (≈ 588 µM) | ≤ 0.03 | 2 (≈ 4.59 µM) | 8 (≈ 18.4 µM) | ≤ 0.03 | 0.125 (≈ 0.287 µM) | 16 (≈ 36.7 µM) | ≤ 0.03 | > 256 | 32 (≈ 73.5 µM) | 0.125 (≈ 0.287 µM) | 0.125 (≈ 0.287 µM) | 0.125 (≈ 0.287 µM) | ≤ 0.03 | 
CN(C)[C@@H]1C(O)=C(C(N)=O)C(=O)[C@@]2(O)C(O)=C3C(=O)c4c(O)cccc4[C@@](C)(O)[C@H]3C[C@@H]12 [TETRACYCLINE] |  |  |  |  |  |  |  |  |  |  |  |  |  |  |  |  |  |  |  |  | MIC [22]: 0.5 µg/mL (≈ 1.13 µM); MIC [23]: 0.25 µg/mL (≈ 0.563 µM)
C[C@H]1[C@H](NC(=O)/C(=N\OCc2cn(C)nn2)c2csc(N)n2)C(=O)N1S(=O)(=O)O (relative stereo) | 1 (≈ 2.25 µM) | > 128 | 4 (≈ 9 µM) | > 128 | > 128 | > 128 | > 128 | 2 (≈ 4.5 µM) | > 128 | 4 (≈ 9 µM) | 0.125 (≈ 0.281 µM) | 4 (≈ 9 µM) | > 128 | 1 (≈ 2.25 µM) | > 128 | > 128 | 0.5 (≈ 1.12 µM) | 4 (≈ 9 µM) | 2 (≈ 4.5 µM) | 0.5 (≈ 1.12 µM) | MIC [1]: 1 µg/mL (≈ 2.25 µM)
CCN(CC)CC.C[C@H]1[C@H](NC(=O)/C(=N\OCc2ccc(C(=O)N/N=C/c3ccc4ccccc4c3O)cc2)c2csc(N)n2)C(=O)N1S(=O)(=O)O | 2 | 16 | 0.25 | 16 | 8 | > 64 | > 64 | 8 | 16 | 64 | ≤ 0.03 | 4 | 32 | 1 | 64 | > 64 | 0.06 | 8 | 8 | 1 | MIC [1]: 4 µg/mL
CCN(CC)CC.C[C@H]1[C@H](NC(=O)/C(=N\OCc2ccc(C(=O)N/N=C/c3cccs3)cc2)c2csc(N)n2)C(=O)N1S(=O)(=O)O (relative stereo) | 2 | 64 | 4 | 32 | 1 | 64 | > 64 | 2 | 64 | 64 | ≤ 0.03 | 4 | 8 | 4 | 64 | > 64 | 1 | 2 | 2 | 0.06 | MIC [1]: 1 µg/mL; MIC [22]: 2 µg/mL; MIC [23]: ≤ 0.06 µg/mL; Selectivity ratio [24]: >16
CCN(CC)CC.C[C@H]1[C@H](NC(=O)/C(=N\OCc2ccc(C(=O)N/N=C/c3ccc(O)cc3O)cc2)c2csc(N)n2)C(=O)N1S(=O)(=O)O (relative stereo) | 2 | 16 | 0.25 | 16 | 8 | 64 | > 64 | 4 | 16 | 64 | ≤ 0.03 | 8 | 32 | 1 | 64 | > 64 | 0.12 | 8 | 4 | 0.5 | MIC [1]: 4 µg/mL; Selectivity ratio [24]: >16
CC1(C)[C@H](NC(=O)/C(=N\OCc2cn(CC(=O)O)nn2)c2csc(N)n2)C(=O)N1S(=O)(=O)O | 1 (≈ 1.99 µM) | > 64 | 32 (≈ 63.7 µM) | > 64 | > 64 | > 64 | > 64 | 4 (≈ 7.96 µM) | > 64 | 2 (≈ 3.98 µM) | ≤ 0.03 | 2 (≈ 3.98 µM) | 1 (≈ 1.99 µM) | 2 (≈ 3.98 µM) | 8 (≈ 15.9 µM) | 32 (≈ 63.7 µM) | > 64 | 2 (≈ 3.98 µM) | 2 (≈ 3.98 µM) | 0.125 (≈ 0.249 µM) | MIC [1]: 1 µg/mL (≈ 1.99 µM)
CC1(C)[C@H](NC(=O)/C(=N\OCc2cn(CC3CC3)nn2)c2csc(N)n2)C(=O)N1S(=O)(=O)O | 16 (≈ 32.1 µM) | > 64 | 16 (≈ 32.1 µM) | > 64 | 64 (≈ 128 µM) | > 64 | 64 (≈ 128 µM) | 32 (≈ 64.2 µM) | > 64 | 16 (≈ 32.1 µM) | ≤ 0.03 | 16 (≈ 32.1 µM) | 16 (≈ 32.1 µM) | > 64 | 16 (≈ 32.1 µM) | 32 (≈ 64.2 µM) | > 64 | 8 (≈ 16 µM) | 32 (≈ 64.2 µM) | 1 (≈ 2.01 µM) | MIC [1]: 8 µg/mL (≈ 16 µM)
Cn1cc(CO/N=C(\C(=O)N[C@@H]2C(=O)N(S(=O)(=O)O)C2(C)C)c2csc(N)n2)nn1 | 2 (≈ 4.36 µM) | > 64 | 4 (≈ 8.72 µM) | > 64 | > 64 | > 64 | 64 (≈ 140 µM) | 8 (≈ 17.4 µM) | > 64 | 2 (≈ 4.36 µM) | 0.06 (≈ 0.131 µM) | 4 (≈ 8.72 µM) | 8 (≈ 17.4 µM) | 2 (≈ 4.36 µM) | 8 (≈ 17.4 µM) | 8 (≈ 17.4 µM) | 0.125 (≈ 0.273 µM) | 4 (≈ 8.72 µM) | 8 (≈ 17.4 µM) | 0.125 (≈ 0.273 µM) | MIC [1]: 2 µg/mL (≈ 4.36 µM)
CCN(CC)CC.Cc1ccc(O)c(/C=N/NC(=O)c2ccc(CO/N=C(\C(=O)N[C@@H]3C(=O)N(S(=O)(=O)O)[C@H]3C)c3csc(N)n3)cc2)c1 (relative stereo) | 2 | 32 | 0.25 | 32 | 8 | 64 | > 64 | 8 | 32 | 64 | 0.06 | 8 | 32 | 2 | 64 | > 64 | 0.12 | 8 | 8 | 1 | MIC [1]: 4 µg/mL
